According to ChEMBL document CHEMBL1275354, “Anticonvulsant activity of 2,4(1H)-diarylimidazoles in mice and rats acute seizure models” (Bioorg Med Chem, 2010):
The source made the active and inactive calls. The calls are words filed in the database; no cut-off is given here.

Assays:
Mus musculus [1] = assay: Neurotoxicity in albino CF1 mouse assessed as minimal motor impairment at 30 mg/kg, ip after 0.5 hrs by rotarod test; format: toxicity, organism-based; set-up: dose 30 mg/kg, route intraperitoneal; conditions: in vivo
Mus musculus [2] = assay: Anticonvulsant activity in albino CF1 mouse assessed as protection against maximal electroshock-induced seizures at 30 mg/kg, ip after 4 hrs; format: functional, organism-based; set-up: dose 30 mg/kg
Mus musculus [3] = assay: Anticonvulsant activity against subcutaneous metrazole-induced seizures in ip dosed albino CF1 mouse assessed as minimum effective dose after 0.5 hrs; format: functional; conditions: albino CF1, 0.5 h, read-out: MED
Mus musculus [4] = assay: Anticonvulsant activity against maximal electroshock-induced seizures in ip dosed albino CF1 mouse assessed as minimum effective dose after 4 hrs; format: functional; conditions: read-out: MED
Rattus norvegicus [5] = assay: Anticonvulsant activity in albino Sprague-Dawley rat assessed as protection against maximal electroshock-induced seizures at 30 mg/kg, po after 0.5 hrs; format: functional, organism-based; set-up: dose 30 mg/kg
Mus musculus [6] = assay: Anticonvulsant activity against maximal electroshock-induced seizures in ip dosed albino CF1 mouse assessed as minimum effective dose after 0.5 hrs; format: functional; conditions: read-out: MED
Mus musculus [7] = assay: Anticonvulsant activity against subcutaneous metrazole-induced seizures in ip dosed albino CF1 mouse assessed as minimum effective dose after 4 hrs; format: functional; conditions: albino CF1, 4 h, read-out: MED
Rattus norvegicus [8] = assay: Anticonvulsant activity in albino Sprague-Dawley rat assessed as protection against maximal electroshock-induced seizures at 30 mg/kg, po after 1 hr; format: functional, organism-based; set-up: dose 30 mg/kg
Mus musculus [9] = assay: Anticonvulsant activity in albino CF1 mouse assessed as protection against subcutaneous metrazole-induced seizures at 30 mg/kg, ip after 0.5 hrs; format: functional, organism-based; set-up: dose 30 mg/kg
Mus musculus [10] = assay: Neurotoxicity in albino CF1 mouse assessed as minimal motor impairment at 300 mg/kg, ip after 0.5 hrs by rotarod test; format: toxicity, organism-based; set-up: dose 300 mg/kg, route intraperitoneal; conditions: in vivo
Mus musculus [11] = assay: Neurotoxicity in albino CF1 mouse assessed as minimal motor impairment at 300 mg/kg, ip after 4 hrs by rotarod test; format: toxicity, organism-based; set-up: dose 300 mg/kg, route intraperitoneal; conditions: in vivo
Mus musculus [12] = assay: Neurotoxicity in ip dosed albino CF1 mouse assessed as minimum dose required to cause toxicity after 4 hrs by rotarod test; format: organism-based; conditions: in vivo
Mus musculus [13] = assay: Neurotoxicity in ip dosed albino CF1 mouse assessed as minimum dose required to cause toxicity after 0.5 hrs by rotarod test; format: organism-based; conditions: in vivo
Rattus norvegicus [14] = assay: Anticonvulsant activity in albino Sprague-Dawley rat assessed as protection against maximal electroshock-induced seizures at 30 mg/kg, po after 4 hrs; format: functional, organism-based; set-up: dose 30 mg/kg
Mus musculus [15] = assay: Anticonvulsant activity in albino CF1 mouse assessed as protection against maximal electroshock-induced seizures at 30 mg/kg, ip after 0.5 hrs; format: functional, organism-based; set-up: dose 30 mg/kg
Mus musculus [16] = assay: Neurotoxicity in albino CF1 mouse assessed as minimal motor impairment at 100 mg/kg, ip after 0.5 hrs by rotarod test; format: toxicity, organism-based; set-up: dose 100 mg/kg, route intraperitoneal; conditions: in vivo
Rattus norvegicus [17] = assay: Anticonvulsant activity in albino Sprague-Dawley rat assessed as protection against maximal electroshock-induced seizures at 30 mg/kg, po after 2 hrs; format: functional, organism-based; set-up: dose 30 mg/kg
Mus musculus [18] = assay: Anticonvulsant activity in albino CF1 mouse assessed as protection against subcutaneous metrazole-induced seizures at 300 mg/kg, ip after 4 hrs; format: functional, organism-based; set-up: dose 300 mg/kg
Mus musculus [19] = assay: Neurotoxicity in albino CF1 mouse assessed as minimal motor impairment at 30 to 300 mg/kg, ip after 0.5 hrs by rotarod test; conditions: in vivo
Mus musculus [20] = assay: Anticonvulsant activity in albino CF1 mouse assessed as protection against maximal electroshock-induced seizures at 100 mg/kg, ip after 0.5 hrs; format: functional, organism-based; set-up: dose 100 mg/kg
Mus musculus [21] = assay: Anticonvulsant activity in albino CF1 mouse assessed as protection against subcutaneous metrazole-induced seizures at 100 mg/kg, ip after 4 hrs; format: functional, organism-based; set-up: dose 100 mg/kg
Mus musculus [22] = assay: Neurotoxicity in albino CF1 mouse assessed as minimal motor impairment at 30 mg/kg, ip after 4 hrs by rotarod test; format: toxicity, organism-based; set-up: dose 30 mg/kg, route intraperitoneal; conditions: in vivo
Rattus norvegicus [23] = assay: Anticonvulsant activity in albino Sprague-Dawley rat assessed as protection against maximal electroshock-induced seizures at 30 mg/kg, po after 0.25 hrs; format: functional, organism-based; set-up: dose 30 mg/kg
Mus musculus [24] = assay: Anticonvulsant activity in albino CF1 mouse assessed as protection against subcutaneous metrazole-induced seizures at 300 mg/kg, ip after 0.5 hrs; format: functional, organism-based; set-up: dose 300 mg/kg
Mus musculus [25] = assay: Anticonvulsant activity in albino CF1 mouse assessed as protection against subcutaneous metrazole-induced seizures at 100 mg/kg, ip after 0.5 hrs; format: functional, organism-based; set-up: dose 100 mg/kg
Mus musculus [26] = assay: Anticonvulsant activity in albino CF1 mouse assessed as protection against maximal electroshock-induced seizures at 300 mg/kg, ip after 4 hrs; format: functional, organism-based; set-up: dose 300 mg/kg
Mus musculus [27] = assay: Anticonvulsant activity in albino CF1 mouse assessed as protection against maximal electroshock-induced seizures at 300 mg/kg, ip after 0.5 hrs; format: functional, organism-based; set-up: dose 300 mg/kg
Rattus norvegicus [28] = assay: Neurotoxicity in albino Sprague-Dawley rat assessed as minimal motor impairment at 30 mg/kg, po by rotarod test; format: toxicity, organism-based; set-up: dose 30 mg/kg, route oral; conditions: in vivo
Mus musculus [29] = assay: Anticonvulsant activity in albino CF1 mouse assessed as protection against subcutaneous metrazole-induced seizures at 30 mg/kg, ip after 4 hrs; format: functional, organism-based; set-up: dose 30 mg/kg
Mus musculus [30] = assay: Neurotoxicity in albino CF1 mouse assessed as minimal motor impairment at 100 mg/kg, ip after 4 hrs by rotarod test; format: toxicity, organism-based; set-up: dose 100 mg/kg, route intraperitoneal; conditions: in vivo
Mus musculus [31] = assay: Neurotoxicity in albino CF1 mouse assessed as minimal motor impairment at 30 to 300 mg/kg, po after 4 hrs by rotarod test; format: toxicity, organism-based; set-up: dose 30-300 mg/kg, route oral; conditions: in vivo
Mus musculus [32] = assay: Anticonvulsant activity in albino CF1 mouse assessed as protection against maximal electroshock-induced seizures at 100 mg/kg, ip after 4 hrs; format: functional, organism-based; set-up: dose 100 mg/kg

Structure (SMILES) | Activity (Mus musculus [1]) | Activity (Mus musculus [2]) | minimal effective dose (Mus musculus [3]) [mg/kg] | minimal effective dose (Mus musculus [4]) [mg/kg] | minimal effective dose (Mus musculus [6]) [mg/kg] | minimal effective dose (Mus musculus [7]) [mg/kg] | Activity (Mus musculus [9]) | MED (Mus musculus [12]) [mg/kg] | MED (Mus musculus [13]) [mg/kg] | Activity (Mus musculus [15]) | Activity (Mus musculus [18]) | Activity (Mus musculus [19]) | Activity (Mus musculus [21]) | Activity (Mus musculus [22]) | Activity (Mus musculus [24]) | Activity (Mus musculus [25]) | Activity (Mus musculus [26]) | Activity (Mus musculus [27]) | Activity (Mus musculus [29]) | Activity (Mus musculus [30]) | other results
COc1ccc(-c2c[nH]c(-c3ccccc3)n2)cc1 | Non-toxic | inactive | 100 | 100 | > 30 | > 300 | inactive | 100 | 100 | inactive | inactive | Non-toxic | inactive | Non-toxic | Active | inactive | Active | Active | inactive | Non-toxic | Activity (Rattus norvegicus [5]): inactive; Activity (Rattus norvegicus [8]): inactive; Activity (Mus musculus [10]): Toxic; Activity (Mus musculus [11]): Toxic; Activity (Rattus norvegicus [14]): inactive; Activity (Mus musculus [16]): Non-toxic; Activity (Rattus norvegicus [17]): inactive; Activity (Mus musculus [20]): Active; Activity (Rattus norvegicus [23]): inactive; Activity (Rattus norvegicus [28]): Non-toxic
COc1cccc(-c2c[nH]c(-c3ccccc3)n2)c1 | Non-toxic | inactive | > 300 | > 300 | > 30 | > 300 | inactive | > 300 | 100 | inactive | inactive | Non-toxic | inactive | Non-toxic | inactive | inactive | inactive | Active | inactive | Non-toxic | Activity (Rattus norvegicus [5]): inactive; Activity (Rattus norvegicus [8]): inactive; Activity (Mus musculus [11]): Non-toxic; Activity (Rattus norvegicus [14]): inactive; Activity (Rattus norvegicus [17]): inactive; Activity (Mus musculus [20]): Active; Activity (Rattus norvegicus [23]): inactive; Activity (Rattus norvegicus [28]): Non-toxic; Activity (Mus musculus [31]): Non-toxic
O=[N+]([O-])c1cccc(-c2c[nH]c(-c3ccccc3)n2)c1 | Non-toxic | inactive | > 300 | 100 | 100 | > 300 | inactive | > 300 | > 300 | inactive | inactive | Non-toxic | inactive | Non-toxic | inactive | inactive | Active | Active | inactive | Non-toxic | Activity (Rattus norvegicus [5]): inactive; Activity (Rattus norvegicus [8]): inactive; Activity (Mus musculus [10]): Non-toxic; Activity (Mus musculus [11]): Non-toxic; Activity (Rattus norvegicus [14]): inactive; Activity (Mus musculus [16]): Non-toxic; Activity (Rattus norvegicus [17]): inactive; Activity (Rattus norvegicus [23]): inactive; Activity (Mus musculus [32]): inactive; Activity (Rattus norvegicus [28]): Non-toxic; Activity (Mus musculus [31]): Non-toxic
c1ccc(-c2c[nH]c(-c3cccnc3)n2)cc1 | Non-toxic | inactive | 100 | 100 | 100 | > 300 | inactive | 100 | 100 | inactive | inactive | Non-toxic | inactive | Non-toxic | Active | Active | Active | Active | inactive | Non-toxic | Activity (Rattus norvegicus [5]): inactive; Activity (Rattus norvegicus [8]): inactive; Activity (Rattus norvegicus [14]): inactive; Activity (Rattus norvegicus [17]): inactive; Activity (Mus musculus [20]): Active; Activity (Rattus norvegicus [23]): inactive; Activity (Mus musculus [32]): inactive; Activity (Rattus norvegicus [28]): Non-toxic
Clc1ccc(-c2c[nH]c(-c3ccccc3)n2)cc1 | Non-toxic | inactive | > 300 | 100 | > 30 | > 300 | inactive | > 300 | 100 | inactive | inactive | Non-toxic | inactive | Non-toxic | inactive | inactive | Active | Active | inactive | Non-toxic | Activity (Rattus norvegicus [5]): inactive; Activity (Rattus norvegicus [8]): inactive; Activity (Mus musculus [11]): Non-toxic; Activity (Rattus norvegicus [14]): inactive; Activity (Mus musculus [16]): Non-toxic; Activity (Rattus norvegicus [17]): inactive; Activity (Mus musculus [20]): Active; Activity (Rattus norvegicus [23]): inactive; Activity (Mus musculus [32]): inactive; Activity (Rattus norvegicus [28]): Non-toxic; Activity (Mus musculus [31]): Non-toxic
O=[N+]([O-])c1cccc(-c2nc(-c3ccccc3)c[nH]2)c1 | Non-toxic | inactive | > 300 | 100 | 100 | > 300 | inactive | > 300 | > 300 | inactive | inactive | Non-toxic | inactive | Non-toxic | inactive | inactive | Active | Active | inactive | Non-toxic | Activity (Rattus norvegicus [5]): inactive; Activity (Rattus norvegicus [8]): inactive; Activity (Mus musculus [10]): Non-toxic; Activity (Mus musculus [11]): Non-toxic; Activity (Rattus norvegicus [14]): inactive; Activity (Mus musculus [16]): Non-toxic; Activity (Rattus norvegicus [17]): inactive; Activity (Rattus norvegicus [23]): inactive; Activity (Mus musculus [32]): inactive; Activity (Rattus norvegicus [28]): Non-toxic; Activity (Mus musculus [31]): Non-toxic
O=[N+]([O-])c1ccc(-c2nc(-c3cccc(C(F)(F)F)c3)c[nH]2)cc1 | Non-toxic | inactive | > 300 | 100 | > 300 | > 300 | inactive | > 300 | > 300 | inactive | inactive | Non-toxic | inactive | Non-toxic | inactive | inactive | Active | inactive | inactive | Non-toxic | Activity (Mus musculus [10]): Non-toxic; Activity (Mus musculus [11]): Non-toxic; Activity (Mus musculus [16]): Non-toxic; Activity (Mus musculus [20]): inactive; Activity (Mus musculus [32]): inactive; Activity (Mus musculus [31]): Non-toxic
